What is called IC50 is the concentration needed to halve the response being measured. Broadly, the inhibition is the relative decrease from the control value, in per cent. A lower inhibition goes with a response near the control.

Experimental findings from paper PMC3927586, “Protein kinase C-delta inactivation inhibits the proliferation and survival of cancer stem cells in culture and in vivo” (BMC Cancer, 2014) are described below.

Like-named read-outs stand apart in the source and are kept apart here.

The test system of assay [1] is breast cancer stem cells (BCSC). Description: Tumor spheroid formation, BCSC. It counts as cell-based, human. The conditions noted are these: added to culture medium, 96 hr, p≤0.001. As for the experimental part: (§1) Tumor self-renewing and anchorage-independent spheroids were obtained by culturing breast cancer cells MCF7, Hs587T and MDA231; melanoma cells SBcl2 and FM6; human breast cancer stem cells and pancreatic cancer stem cells in stem cell-selective conditions according to the manufacturer’s instructions (StemCell Technologies, Tukwila, WA). Briefly, cancer and cancer stem cells were propagated in 6-well ultra-low adherent plates (Corning) in Complete MammoCult Medium (Human) by adding 50 mL of MammoCult Proliferation Supplements to 450 mL of MammoCult Basal Medium (StemCell Technologies). The following were added to obtain Complete MammoCult Medium: 4 ug/mL Heparin (StemCell Technologies), 0.48 μg/mL hydrocortisone (StemCell Technologies), 200 U penicillin/ml; and 200 μg streptomycin/ml (Invitrogen).
(§2) Figure 4 Effects of PKCδ inhibitors on human tumor cell spheroid formation. […] Tumor spheroids and adherent cells were collected at 96 hr, stained for CD24 and CD44, and analyzed by flow cytometry. […] After 24, 48 and 72 hr of exposure, cell mass was evaluated by MTT assay. […] Viable cells were enumerated and re-plated in media without BJE6-206, and spheroid numbers were quantitated 96 hr later. p values for comparison between vehicle and BJE6-106 effects on spheroid number were significant after 6 hr of exposure (p≤0.02), and remained significant at all time points thereafter. […]

In another assay the test system is MiaPaCa2. The assay is described as follows: Tumor spheroid growth, MiaPaCa2 pancreatic cancer. It counts as cell-based, human. The conditions noted are these: p < 0.001.
The next assay relates to DU145. The assay is described as follows: Tumor spheroid growth, DU145 prostate cancer. It counts as cell-based, human. The conditions noted are these: p < 0.001.
For the next assay, the target named is T1, recombinant PKCα (Homo sapiens, UniProt P17252).
T1 construct: purchased Invitrogen
Description: PKC kinase activity assay (Z-lyte), PKCα. It counts as biochemical. As for the experimental part:
Assays were carried out using recombinant PKCδ or PKCα, (Invitrogen) and the Z-lyte Kinase Assays (Invitrogen) with a “PKC-kinase-specific” peptide substrate. FRET interactions produce a change in fluorescence (ex455/ex520) upon phosphorylation. The kit was used according to the manufacturer’s instructions.

Another assay concerns SBcl2. The assay is described as follows: Tumor spheroid growth, SBcl2 melanoma. The class given is cell-based, human. The conditions noted are these: p < 0.001. As for the experimental part:
as §1

For assay [2], the system named is pancreatic cancer stem cells (PCSC). Description: Tumor spheroid formation, PCSC. It counts as cell-based, human. The settings on record: added to culture medium, 96 hr, p≤0.001. As for the experimental part: as §1, §2

For the molecule `CC1(C)C=Cc2cc(CCn3c4ccccc4c4ccccc43)cc(C=O)c2O1` [BJE6-106, 6-(2-(9H-carbazol-9-yl)ethyl)-2,2-dimethyl-2H-chromene-8-carbaldehyde], in assay [1], the “effect on formation of spheroids, BCSC” value was “very efficiently inhibited”. Besides, the “inhibition of tumor spheroid growth, MiaPaCa2” value in the assay on MiaPaCa2 (BJE6-106 at 0.5-1.0 μM) was > 97%. In addition, the “inhibition of tumor spheroid growth, DU145” value in the assay with DU145 (BJE6-106 at 0.5-1.0 μM) is reported as > 98%. Moreover, the IC50 at recombinant PKCα (in vitro kinase assay, read-out: PKCα IC50) is 50 µM. Besides, the “inhibition of tumor spheroid growth, SBcl2” value with SBcl2 (BJE6-106 at 0.5-1.0 μM) is > 99.5%. The “effect on formation of spheroids, PCSC” value in assay [2] is given as “very efficiently inhibited”.
Turning to `CC(=O)c1c(O)c(C)c(O)c(Cc2c(O)c3c(c(C(=O)/C=C/c4ccccc4)c2O)OC(C)(C)C=C3)c1O` [rottlerin, Rottlerin, reference compound], the “effect on formation of spheroids, BCSC” value in assay [1] is reported as “very efficiently inhibited”. Also, the inhibition at 10 µM in the assay on MiaPaCa2 (Homo sapiens, MIA PaCa-2, rottlerin at 10 μM) is > 97%; in the assay on DU145 (Homo sapiens, DU-145, rottlerin at 10 μM), > 98%; in the assay with SBcl2 (Homo sapiens, SBcl2, rottlerin at 10 μM), > 99.5%. For the same molecule, the IC50 on recombinant PKCα was found to be 75 µM. Further, the “effect on formation of spheroids, PCSC” value in assay [2] is given as “very efficiently inhibited”.
